Marks after values point to notes of the source that are not given here.
Experiments:
[1] = Blood (serum) analysis, Example B6; type: in vivo, mouse; details: 14th day after operation, high-fat diet
Experimental: Each C57BL/6J (SLC, male, 7 weeks old) was allowed to freely eat High-Fat Diets with 60 cal % Fat (Research Diets, Inc.) and freely drink tap water. The body weight was measured every week. After 10 weeks, the mice were divided into 4 groups such that the average body weight was equivalent among the groups (n=8). The breeding environment was set to room temperature of 23±2° C., a humidity of 55±10%, and a light period of 7 a.m. to 7 p.m.
A 1/13 diluted solution of Somnopentyl was intraperitoneally administered at 10 mL/kg body weight, and then, an analgesic pentazocine was subcutaneously injected at 1 mg/kg body weight. After shaving of the back, an osmotic pump Alzet (DURECT Corp.) filled with the agents given below was implanted to thereby continuously administer the agents.
Group 2: PPARγ activator (rosiglitazone (Rosi); 5 mg/kg body weight/day)+Smad3 inhibitor (SIS3; 5 mg/kg body weight/day)
Group 3; β3 adrenaline receptor activator (CL316,243; 0.1 mg/kg body weight/day)
Group 4; PPARγ activator (rosiglitazone (Rosi); 5 mg/kg body weight/day)+Smad3 inhibitor (SIS3; 5 mg/kg body weight/day)+β3 adrenaline receptor activator (CL316,243; 0.1 mg/kg body weight/day)
Anatomy was performed on the 14th day after the operation. Blood was collected from the abdominal vena cava under isoflurane anesthesia. Then, each tissue shown below was collected and the weight of the tissue was measured. The significant difference was tested using a multiple comparison test by the Turkey-Kramer method (different letters indicate significant difference with P<0.05).
Serum from the blood obtained by the anatomy described above was subjected to componential analysis using commercially available measurement kits described below.
Adiponectin: adiponectin ELISA kit (Otsuka Pharmaceutical Co., Ltd.)
Insulin: insulin measurement kit (Morinaga Institute of Biological Science, Inc.)
Glucose: N-Assay Glu-UL (Nittobo Medical Co., Ltd.)
Total cholesterol: N-Assay L T-CHO-H (Nittobo Medical Co., Ltd.)
Triglyceride: N-Assay TG-H (Nittobo Medical Co., Ltd.)
NEFA: NEFA-HA Test Wako (Wako Pure Chemical Industries, Ltd.)

[2] = test system: UCP-1; experiment: UCP-1 expression-inducing action in rat preadipocytes (quantitative PCR), Example B1; type: cell-based
Experimental: The abdominal subcutaneous fat tissues of a Wistar-rat (male, 8 weeks old) were chopped with a surgical knife in a collagenase buffer (0.05% collagenase+4% BSA in Hank's buffer), and then, the chopped tissues were incubated at 37° C. for 15 minutes while shaken. After addition of an appropriate amount of a medium (high glucose DMEM (Invitrogen Corp.)+10% fetal, bovine serum (FBS) (AusGeneX PTY LTD.)+100 units/mL penicillin+[…] streptomycin (Invitrogen Corp.)), the obtained cell suspension was centrifuged at 1,000 rpm for 5 minutes. The supernatant was removed to obtain pellets (SVF: stromal vascular fraction). The SVF was suspended in a DMEM (+10% FBS+penicillin+streptomycin) medium, inoculated to a T-175 flask, cultured for 4 days, and used as preadipocytes.
The preadipocytes were inoculated to a 12-well plate coated with type I collagen. On the next day, the PPARγ activator (rosiglitazone (Rosi) (Wako Pure Chemical Industries, Ltd.), final concentration: 1 μM) and/or the Smad3 inhibitor (SIS3 (Sigma-Aldrich Corp.), final concentration: 10 μM) was added thereto. After culture for 7 days, the β3 adrenaline receptor activator (norepinephrine (NE) (Wako Pure Chemical Industries, Ltd.), final concentration: 1 μM)) was added thereto, and the cells were cultured for 2 hours, then washed with PBS, and recovered.
Total RNA was extracted according to a standard method using RNeasy Mini Kit (Qiagen N.V.). The total RNA was reverse-transcribed according to a standard method using High Capacity RNA-to-cDNA Kit (Applied Biosystems by Life Technologies).
Quantitative PCR was performed with the obtained cDNA (30 ng/well) as a template using 7500 Fast Real-Time PCR System (Applied Biosystems by Life Technologies). The expression level of each gene was corrected with a 36B4 gene expression level as an internal standard. Control excluded the agents described above.
(§1) The preadipocytes (n=3) obtained as described above were inoculated to a 12-well plate coated with type I collagen. On the next day, the PPARγ activator (rosiglitazone (Rosi) (Wako Pure Chemical Industries, Ltd.) or pioglitazone (Wako Pure Chemical Industries, Ltd.); 1 μM) and the Smad3 inhibitor (SIS3 (Sigma-Aldrich Corp.), 10 μM) were added thereto. After culture for 7 days, the cells were treated with the β3 adrenaline receptor activator (norepinephrine (Wako Pure Chemical Industries, Ltd.), 1 μM) for 2 hours and then recovered.
The preadipocytes were collected by trypsin treatment and transfected with siRNA against each Smad by electroporation using Neon transfection System. (Invitrogen Corp.). The preadipocytes (3×10^5 cells) were transfected with 50 pmol of the siRNA (Life Technologies) under conditions of 1150 V/20 ms/3 pulses, suspended in a DMEM (+10% FBS+100 units/mL penicillin+[…] streptomycin) medium, and then inoculated to a 12-well plate coated with type I collagen. After 6 hours, rosiglitazone was added thereto, and the cells were cultured with the medium replaced with fresh one every day. Four days after the inoculation, the cells were treated with norepinephrine for 2 hours and then recovered, and the UCP-1 expression level was analyzed by using RT-PCR. For a control, rosiglitazone, SIS3, and norepinephrine were added in the same approach as above to cells transfected with random siRNA, followed by analysis.
as §1, with “Ltd.), 10” for “Ltd.) or pioglitazone (Wako Pure Chemical Industries, Ltd.); 1”, “Corp.) or SB431542 (Sigma-Aldrich Corp.);” for “Corp.),”
The preadipocytes (n=3) were inoculated to a 12-well plate coated with type I collagen. […]

[3] = target: T1, human TGR5 (Homo sapiens, UniProt Q8TDU6); experiment: TGR5-activating action, CRE luciferase reporter in HEK293 cells, Reference Example 3; type: cell-based; details: material 0.001%, 12 to 18 hours; relative to control defined as 1; FIG. 22
T1 construct: expressed in transfected cells; host or cells: HEK293
T1 sequence (Q8TDU6 1-330): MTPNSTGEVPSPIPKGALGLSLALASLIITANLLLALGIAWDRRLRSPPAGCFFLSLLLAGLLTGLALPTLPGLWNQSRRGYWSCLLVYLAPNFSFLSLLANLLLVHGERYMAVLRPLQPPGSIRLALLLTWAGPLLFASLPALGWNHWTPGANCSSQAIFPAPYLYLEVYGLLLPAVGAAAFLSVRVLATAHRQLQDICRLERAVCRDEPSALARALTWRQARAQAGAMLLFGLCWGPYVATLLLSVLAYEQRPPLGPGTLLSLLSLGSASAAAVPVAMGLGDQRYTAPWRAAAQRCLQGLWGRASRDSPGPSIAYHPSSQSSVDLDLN
Experimental: HEK293 cells were inoculated at 1.0×10^5 cells/well to a 24-well plate and cultured in a DMEM medium containing 5% charcoal-treated FBS for 1 day. Then, the cells were transfected with 200 ng/well of a firefly luciferase reporter vector pGL4.29[luc2P/CRE/Hygro](Promega Corp.) containing a cAMP-responsive element (CRE), 40 ng/well of a human TGR5 expression vector hTGR5 (pcDNA3.1+), and 80 ng/well of phRL-TK (Renilla luciferase vector for gene, transfection efficiency correction) using Superfect transfection reagent (Qiagen N.V.). After 3 hours, the medium was replaced with a DMEM medium containing 5% charcoal-treated […]. After another 4 hours, each material shown in Table 4 below was added thereto at a final concentration of 0.001%. 12 to 18 hours thereafter, the luciferase activities were measured using DualGlo luciferase assay system (Promega Corp.). The TGR5-activating action was evaluated by correcting the firefly luciferase activity with the Renilla luciferase activity. The TGR5-activating action was indicated by relative values to the TGR5 activity in a control defined as 1.

[4] = test system: Smad3; experiment: TGF-β stimulation-responsive Smad3 phosphorylation in HEK293 cells (Western blotting), Reference Example 1; type: cell-based; details: material 0.002% (luteolin 2 μM) or 0.01% (luteolin 10 μM), 2 hours, then 0.03 μg/mL TGF-β 20 minutes, FIG. 20
Experimental: HEK293 cells were inoculated at 3×10^5 cells/well to a 6-well dish and cultured overnight in DMEM containing 5% charcoal-treated FBS. On the next day, the medium was replaced with serum-free DMEM supplemented with each material shown in Table 2 below at a final concentration of 0.002% (luteolin: 2 μM) (low-concentration sample) or a final concentration of 0.01% (luteolin: 10 μM) (high-concentration sample). After 2 hours, 0.03 μg/mL TGF-β was added to each well, and the cells were incubated for 20 minutes. After removal of the medium, the resulting cells were washed with PBS and then recovered. The recovered cells were added with Lysis buffer and well homogenized. The cells were left to stand for 15 minutes on ice and then ultrasonically disrupted, and a supernatant centrifuged at 12,000 rpm at 4° C. for 10 minutes was obtained as a protein solution. A prepared sample containing […] of the protein and a ¼ volume of 4×SDS Sample buffer (Novagen) per lane was thermally denatured at 95° C. for 5 minutes and then used in SDS-PAGE. The protein was transferred to Immun-Blot™ PVDF Membrane (Bio-Red Laboratories, Inc.) and subjected to blocking and antibody reaction by the procedures given below, and α-Tubulin and Smad3 were detected together using ECL prime western blotting detection system (Amersham plc). […]

[5] = Smad3 inhibitor 10 μM with rosiglitazone 10 μM (7 days) and norepinephrine 1 μM (2 hours), FIG. 8
[6] = β3 adrenaline receptor activator 1 μM for 2 hours added to rosiglitazone 1 μM and SIS3 10 μM (7 days), FIG. 9
[7] = PPARγ activator 1 μM added to SIS3 10 μM (7 days) and norepinephrine 1 μM (2 hours), FIG. 6

With C[C@H](Cc1ccc2c(c1)OC(C(=O)[O-])(C(=O)[O-])O2)NC[C@H](O)c1cccc(Cl)c1.[Na+].[Na+] [CL316,243] the Glucose [1] was 274.9 ± 19.6^a mg/dl, the Insunlin [1] was 3.05 ± 0.30^ab ng/ml and the NEFA [1] was 0.92 ± 0.09^a mEq/l. The Total cholesterol [1] was 151.1 ± 4.8^ac mg/dl, the Triglyceride [1] was 77.2 ± 7.8^ab mg/dl and the Adiponectin ([1]; Rosi 5, SIS3 5, CL316,243 0.1 mg/kg body weight/day) was 36.9 ± 6.9^ab μg/ml.

For NC(=O)c1ccc(-c2nc(-c3ccc4c(c3)OCO4)c(-c3ccccn3)[nH]2)cc1 [SB431542], the “expression level of UCP-1” value [2, 5] was “synergistically increased”.

For COc1cc2c(cc1OC)CN(C(=O)/C=C/c1c(-c3ccccc3)n(C)c3ncccc13)CC2 [SIS3, 6,7-dimethoxy-2-((2E)-3-(1-methyl-2-phenyl-1H-pyrrolo[2,3-b]pyridin-3-yl-prop-2-enoyl))-1,2,3,4-tetrahydroisoquinoline], the “expression level of UCP-1” value [2, 5] was “synergistically increased”.

With C[C@H](CCC(=O)O)[C@H]1CC[C@H]2[C@@H]3[C@H](O)C[C@@H]4C[C@H](O)CC[C@]4(C)[C@H]3C[C@H](O)[C@]12C [cholic acid] the TGR5-activating action [3] was “confirmed to have a TGR5-activating action”.

With CCCCC[C@H](O)CC(=O)CCc1ccc(O)c(OC)c1 [gingerol] the TGR5-activating action [3] was “confirmed to have a TGR5-activating action”.

In the case of O=c1cc(-c2ccc(O)c(O)c2)oc2cc(O)cc(O)c12 [luteolin], the “TGF-β stimulation-responsive Smad3 hyperphosphorylation (Smad3-inhibiting action)” value [4] is reported as “confirmed to have a Smad3-inhibiting action”.

For Nc1nc(CC(=O)Nc2ccc(CCNC[C@H](O)c3ccccc3)cc2)cs1 [mirabegron], the “expression level of UCP-1” value [2, 6] was “synergistically increased”.

With NC[C@H](O)c1ccc(O)c(O)c1 [norepinephrine] the “expression level of UCP-1” value [2, 6] was “synergistically increased”.

In the case of CCc1ccc(CCOc2ccc(CC3SC(=O)NC3=O)cc2)nc1 (stereo not drawn) [pioglitazone], the “expression level of UCP-1” value [2, 7] is reported as “synergistically increased”.

For CN(CCOc1ccc(CC2SC(=O)NC2=O)cc1)c1ccccn1 (stereo not drawn) [rosiglitazone], the “expression level of UCP-1” value [2, 7] was “synergistically increased”.

Reference: patent US10758519B2, “UCP-1 expression promoter” (Kao Corporation, priority 2014, dated 2020)
